According to US20260256792A1, “TREATMENT OF CHRONIC SPONTANEOUS URTICARIA BY ADMINISTERING (R)-2-[3-[4-AMINO-3-(2-FLUORO-4-PHENOXY-PHENYL)PYRAZOLO[3,4-D]PYRIMIDIN-1-YL]PIPERIDINE-1-CARBONYL]-4-METHYL-4-[4-(OXETAN-3-YL)PIPERAZIN-1-YL]PENT-2-ENENITRILE” (priority 2023, published 2026):

System: moderate-to-severe chronic spontaneous urticaria (CSU)
Assay: Phase 2 CSU study: hives severity score over 7 days (HSS7)
Assay type: in vivo, human
Parameters: key to HSS7 Change from baseline, Median / HSS7, Median / HSS7, Max / HSS7 Change from baseline, Q1 / HSS7 Change from baseline, Q3 / HSS7 Change from baseline, Max: 7-day sum of daily hive scores, each 0 = none to 3 = >50 hives
From the text: The study comprises a 12 week, randomized, double-blind, placebo-controlled, multi-center, dose-ranging efficacy and safety phase, followed by a 40 week open label extension (OLE) phase (see FIG. 1).
The study consists of three phases and an optional OLE phase.
The UAS is a validated PRO measure. The daily UAS is the sum of the daily Hive Severity Score (HSS, ranging from 0=None to 3=more than 50 hives) and the daily Itch Severity Score (ISS, ranging from 0=None to 3=intense), the 2 key urticaria signs and symptoms which are wheals and itch. The daily UAS scores range from 0 to 6 point/day. Daily UAS scores are summed over 7-day period to create the UAS7, ranging from 0 to 42, and are composed of the HSS7 and ISS7 components. […] Patients were to complete the UAS using the e-diary. The e-diary was to be used once daily on the same time of each day recording of participant's answers to the urticaria activity score over 7 days (UAS7) questionnaire. For participants who entered the OLE phase, their answers to the UAS7 questionnaire were also to be collected from Week 20 to Week24 and from Week 48 to Week 52.
The following secondary endpoints were to be analyzed using the same approach as for the primary endpoint: • Change from baseline in UAS7 at Week 4 • Change from baseline in UAS7 at Week 12 (for US and US reference countries) • Change from baseline in ISS7 at Week 12 (except US and US reference countries) • Change from baseline in HSS7 at Week 12

[1] = 400 mg QPM, Week 10, ITT Population
[2] = 400 mg QPM, Week 11, ITT Population
[3] = 400 mg QPM, Week 12, ITT population
[4] = 400 mg QPM, Week 12, Omalizumab-Naïve Population
[5] = 400 mg TID, Omalizumab-Naïve Population, last block under Week 12, double-blind period, WOCF imputation
[6] = 400 mg TID, Week 1, ITT Population
[7] = 400 mg TID, Week 1, Omalizumab-Naïve Population
[8] = 400 mg TID, Week 2, ITT Population
[9] = 400 mg TID, Week 2, Omalizumab-Naïve Population
[10] = 400 mg TID, Week 3, ITT Population
[11] = 400 mg TID, Week 3, Omalizumab-Naïve Population
[12] = 400 mg TID, Week 4, ITT population
[13] = 400 mg TID, Week 4, Omalizumab-Naïve Population
[14] = 400 mg TID, Week 5, ITT Population
[15] = 400 mg TID, Week 5, Omalizumab-Naïve Population
[16] = 400 mg TID, Week 6, ITT Population
[17] = 400 mg TID, Week 6, Omalizumab-Naïve Population
[18] = 400 mg TID, Week 7, ITT Population
[19] = 400 mg TID, Week 7, Omalizumab-Naïve Population
[20] = 400 mg TID, Week 8, ITT population
[21] = 400 mg TID, Week 8, Omalizumab-Naïve Population

CC(C)(C=C(C#N)C(=O)N1CCC[C@@H](n2nc(-c3ccc(Oc4ccccc4)cc3F)c3c(N)ncnc32)C1)N1CCN(C2COC2)CC1 [rilzabrutinib, (R)-2-[3-[4-amino-3-(2-fluoro-4-phenoxy-phenyl)pyrazolo[3,4-d]pyrimidin-1-yl]piperidine-1-carbonyl]-4-methyl-4-[4-(oxetan-3-yl)piperazin-1-yl]pent-2-enenitrile]
HSS7 % Change difference for rilzabrutinib vs.placebo LS Mean (95% CI) [1]: −6.70 %
HSS7 % Change from baseline LS Mean (SE) [1]: −34.70 (6.79) %
HSS7 Change difference for rilzabrutinib vs.placebo LS Mean (95% CI) [1]: −0.56 (−3.19, 2.07)
HSS7 Change from baseline LS Mean (SE) [1]: −5.16 (0.98)
HSS7 Postbaseline Mean (SD) [1]: 9.82 (5.85)
HSS7 Postbaseline Mean (SD) (400 mg QPM, Week 10, Omalizumab-Naïve Population): 9.88 (5.93)
HSS7 Postbaseline Mean (SD) (400 mg QPM, Week 10, Omalizumab-Naïve Population with Outlier Removed from Analysis): 9.88 (5.93)
HSS7 % Change difference for rilzabrutinib vs.placebo LS Mean (95% CI) [2]: −8.01 %
HSS7 % Change from baseline LS Mean (SE) [2]: −34.56 (7.07) %
HSS7 Change difference for rilzabrutinib vs.placebo LS Mean (95% CI) [2]: −0.43 (−3.08, 2.22)
HSS7 Change from baseline LS Mean (SE) [2]: −4.97 (0.99)
HSS7 Postbaseline Mean (SD) [2]: 10.15 (6.09)
HSS7 Postbaseline Mean (SD) (400 mg QPM, Week 11, Omalizumab-Naïve Population): 10.18 (6.18)
HSS7 Postbaseline Mean (SD) (400 mg QPM, Week 11, Omalizumab-Naïve Population with Outlier Removed from Analysis): 10.18 (6.18)
HSS7 % Change difference for rilzabrutinib vs.placebo LS Mean (95% CI) [3]: −5.74 %
HSS7 % Change from baseline LS Mean (SE) [3]: −33.48 (7.28) %
HSS7 Change difference for rilzabrutinib vs.placebo LS Mean (95% CI) [3]: 0.14 (−2.62, 2.91)
HSS7 Change from baseline LS Mean (SE) [3]: −4.75 (1.03)
HSS7 Change difference for rilzabrutinib vs.placebo LS Mean (95% CI) [4]: −0.09 (−2.92, 2.75)
HSS7 Change from baseline LS Mean (SE) [4]: −4.49 (1.04)
median reduction in HSS7 at Week 12 (400 mg TID, ITT population): −8.31 points
HSS7, Max [5]: 16.0
HSS7, Min [5]: 2.0
HSS7 Change from baseline, Max [5]: 0.0
HSS7 Change from baseline, Mean (SD) [5]: −5.20 (3.11)
HSS7 Change from baseline, Median [5]: −6.00
HSS7 Change from baseline, Min [5]: −8.0
HSS7 Change from baseline, Q1 [5]: −7.00
HSS7 Change from baseline, Q3 [5]: −5.00
HSS7 Percent change from baseline, Max [5]: 0.0%
HSS7 Percent change from baseline, Mean (SD) [5]: −38.89 (26.61) percent
HSS7 Percent change from baseline, Median [5]: −44.44%
HSS7 Percent change from baseline, Min [5]: −71.4%
HSS7 Percent change from baseline, Q1 [5]: −50.00%
HSS7 Percent change from baseline, Q3 [5]: −28.57%
HSS7 % Change difference for rilzabrutinib vs.placebo LS Mean (95% CI) [6]: −30.65 %
HSS7 % Change from baseline LS Mean (SE) [6]: −39.34 (5.49) %
HSS7 Change from baseline LS Mean (SE) [6]: −6.09 (0.74)
HSS7 Postbaseline Mean (SD) [6]: 7.76 (4.83)
HSS7 % Change difference for rilzabrutinib vs.placebo LS Mean (95% CI) [7]: −27.41 %
HSS7 % Change from baseline LS Mean (SE) [7]: −34.85 (6.00) %
HSS7 Change from baseline LS Mean (SE) [7]: −5.32 (0.79)
HSS7 Postbaseline Mean (SD) [7]: 8.26 (4.91)
HSS7 Postbaseline Mean (SD) (400 mg TID, Week 1, Omalizumab-Naïve Population with Outlier Removed from Analysis): 8.50 (4.76)
HSS7 % Change difference for rilzabrutinib vs.placebo LS Mean (95% CI) [8]: −30.93 %
HSS7 % Change from baseline LS Mean (SE) [8]: −47.49 (5.64) %
HSS7 Change difference for rilzabrutinib vs.placebo LS Mean (95% CI) [8]: −4.24 (−6.33, −2.15)
HSS7 Change from baseline LS Mean (SE) [8]: −7.16 (0.77)
HSS7 Postbaseline Mean (SD) [8]: 6.61 (5.06)
HSS7 % Change difference for rilzabrutinib vs.placebo LS Mean (95% CI) [9]: −27.36 %
HSS7 % Change from baseline LS Mean (SE) [9]: −42.63 (6.08) %
HSS7 Postbaseline Mean (SD) [9]: 7.25 (5.05)
HSS7 Postbaseline Mean (SD) (400 mg TID, Week 2, Omalizumab-Naïve Population with Outlier Removed from Analysis): 7.44 (5.01)
HSS7 % Change difference for rilzabrutinib vs.placebo LS Mean (95% CI) [10]: −29.56 %
HSS7 % Change from baseline LS Mean (SE) [10]: −48.71 (5.82) %
HSS7 Change difference for rilzabrutinib vs.placebo LS Mean (95% CI) [10]: −3.79 (−5.97, −1.61)
HSS7 Change from baseline LS Mean (SE) [10]: −7.29 (0.81)
HSS7 Postbaseline Mean (SD) [10]: 6.49 (4.72)
HSS7 % Change difference for rilzabrutinib vs.placebo LS Mean (95% CI) [11]: −27.37 %
HSS7 % Change from baseline LS Mean (SE) [11]: −45.07 (6.36) %
HSS7 Postbaseline Mean (SD) [11]: 7.03 (4.82)
HSS7 Postbaseline Mean (SD) (400 mg TID, Week 3, Omalizumab-Naïve Population with Outlier Removed from Analysis): 7.03 (4.89)
HSS7 % Change difference for rilzabrutinib vs.placebo LS Mean (95% CI) [12]: −29.20 %
HSS7 % Change from baseline LS Mean (SE) [12]: −47.90 (5.95) %
HSS7 Change difference for rilzabrutinib vs.placebo LS Mean (95% CI) [12]: −3.53 (−5.74, −1.31)
HSS7 Change from baseline LS Mean (SE) [12]: −6.98 (0.82)
HSS7 Postbaseline Mean (SD) [12]: 6.39 (4.92)
HSS7 % Change difference for rilzabrutinib vs.placebo LS Mean (95% CI) [13]: −28.82 %
HSS7 % Change from baseline LS Mean (SE) [13]: −44.69 (6.50) %
HSS7 Postbaseline Mean (SD) [13]: 6.85 (4.96)
HSS7 Postbaseline Mean (SD) (400 mg TID, Week 4, Omalizumab-Naïve Population with Outlier Removed from Analysis): 6.85 (4.96)
HSS7 % Change difference for rilzabrutinib vs.placebo LS Mean (95% CI) [14]: −23.13 %
HSS7 % Change from baseline LS Mean (SE) [14]: −52.29 (5.80) %
HSS7 Change difference for rilzabrutinib vs.placebo LS Mean (95% CI) [14]: −3.09 (−5.36, −0.81)
HSS7 Change from baseline LS Mean (SE) [14]: −7.73 (0.84)
HSS7 Postbaseline Mean (SD) [14]: 6.02 (5.11)
HSS7 % Change difference for rilzabrutinib vs.placebo LS Mean (95% CI) [15]: −18.86 %
HSS7 % Change from baseline LS Mean (SE) [15]: −49.42 (6.23) %
HSS7 Postbaseline Mean (SD) [15]: 6.49 (5.14)
HSS7 Postbaseline Mean (SD) (400 mg TID, Week 5, Omalizumab-Naïve Population with Outlier Removed from Analysis): 6.49 (5.14)
HSS7 % Change difference for rilzabrutinib vs.placebo LS Mean (95% CI) [16]: −28.20 %
HSS7 % Change from baseline LS Mean (SE) [16]: −52.27 (6.61) %
HSS7 Change difference for rilzabrutinib vs.placebo LS Mean (95% CI) [16]: −3.48 (−5.94, −1.02)
HSS7 Change from baseline LS Mean (SE) [16]: −7.75 (0.91)
HSS7 Postbaseline Mean (SD) [16]: 6.14 (5.55)
HSS7 % Change difference for rilzabrutinib vs.placebo LS Mean (95% CI) [17]: −24.11 %
HSS7 % Change from baseline LS Mean (SE) [17]: −48.15 (7.17) %
HSS7 Postbaseline Mean (SD) [17]: 6.78 (5.55)
HSS7 Postbaseline Mean (SD) (400 mg TID, Week 6, Omalizumab-Naïve Population with Outlier Removed from Analysis): 6.78 (5.55)
HSS7 % Change difference for rilzabrutinib vs.placebo LS Mean (95% CI) [18]: −27.16 %
HSS7 % Change from baseline LS Mean (SE) [18]: −51.12 (6.01) %
HSS7 Change difference for rilzabrutinib vs.placebo LS Mean (95% CI) [18]: −3.58 (−5.87, −1.29)
HSS7 Change from baseline LS Mean (SE) [18]: −7.66 (0.86)
HSS7 Postbaseline Mean (SD) [18]: 6.18 (4.44)
HSS7 % Change difference for rilzabrutinib vs.placebo LS Mean (95% CI) [19]: −24.63 %
HSS7 Postbaseline Mean (SD) [19]: 6.40 (4.54)
HSS7 Postbaseline Mean (SD) (400 mg TID, Week 7, Omalizumab-Naïve Population with Outlier Removed from Analysis): 6.40 (4.54)
HSS7 % Change difference for rilzabrutinib vs.placebo LS Mean (95% CI) [20]: −25.27 %
HSS7 % Change from baseline LS Mean (SE) [20]: −54.34 (6.35) %
HSS7 Change difference for rilzabrutinib vs.placebo LS Mean (95% CI) [20]: −3.06 (−5.54, −0.58)
HSS7 Change from baseline LS Mean (SE) [20]: −7.81 (0.92)
HSS7 Postbaseline Mean (SD) [20]: 5.60 (4.81)
HSS7 % Change difference for rilzabrutinib vs.placebo LS Mean (95% CI) [21]: −22.36 %
HSS7 % Change from baseline LS Mean (SE) [21]: −50.37 (7.07) %
